One block for each compound: values may come before it.
What was measured:
[1] = tested on: LabCyte MELANO-MODEL, human skin three-dimensional model containing melanocytes; test: Melanin production inhibition test in human skin three-dimensional model; format: cell-based; conditions: for IC50: read-out: concentration at which melanin production inhibition rate reaches 50%, from plots in FIG. 5, kojic acid 0.1% = 100% inhibition, PBS = 0%
Description: The culture medium and the applied sample solution were exchanged every 2 or 3 days. After the completion of the culture, the percentage of viable cells was measured by an MTT (methylthiazole tetrazolium) assay. Further, a melanin amount was measured.
Melanin amount: The skin cells after the MTT assay were immersed in a reagent obtained by dissolving 1% SDS, 0.05 mM EDTA, and a 10 mM tris-HCl buffer solution (pH 7.2). 3 μL of a 5 mg/mL Proteinase K was added and the solution was heated in a water bath at 45° C. overnight to dissolve the skin. A 30% hydrogen peroxide solution and a 500 mM sodium carbonate solution were added thereto, the solution was mixed well and heated in a water bath at 80° C. for 30 min, and impurities were removed by chloroform/methanol (2/1). At the same time, melanin solutions were prepared by similar operations to prepare a calibration curve, and a melanin amount in the cultured skin cells was determined.

[2] = Stability of pantetheine-4′-phosphate, pantetheine and pantethine (Example 4); conditions: 40° C. for 1 month; for amount of disulfide produced from the compound: alkaline condition (pH 8 and pH 9.5)
Description: Fifty mM sodium citrate buffer solutions (pH 3, 4, 5, and 6), a 50 mM sodium phosphate buffer solution (pH 7), and 50 mM tris-HCl buffer solutions (pH 8, 9.5) containing 0.1% (w/v) of pantetheine-4′-phosphate were prepared. Each 0.4 mL of the solutions was encapsulated in a 1 mL-glass ampule and heated at 40° C. for 1 month. Samples before and after the heating were analyzed by an HPLC to measure the content of pantetheine-4′-phosphate.

[3] = pH stability of barium pantethine-4′,4″-diphosphate, pantethine and calcium pantetheine-5-sulfonate (Example 1); conditions: 0.1% (w/v) in 50 mM buffer, 40° C. for 6 months, diphosphate tested as barium salt
Description: Sodium citrate buffer solutions were used as buffer solutions at pH 3, 4, 5 and 6. Sodium phosphate buffer solutions were used as buffer solutions at pH 6.5 and 7. Tris-HCl buffer solutions were used as buffer solutions at pH 8 and 9.5.

[4] = pH stability of pantethine-4′,4″-diphosphate, pantethine-4′-phosphate and pantethine (Example 2); format: physicochemical; conditions: pH 4 or lower, or pH 7 or higher; 0.1% (w/v) in 50 mM buffer, 40° C. for 3 months; diphosphate tested as sodium salt
[5] = ratio of 50% inhibition concentrations

Compound: CC(C)(CO)[C@@H](O)C(=O)NCCC(=O)NCCS [pantetheine]
amount of disulfide produced from the compound [2]: decrease in the amount of pantethine produced

Compound: O=c1cc(CO)occ1O [kojic acid]
melanin production amount, relative to the case where only PBS was added ([1]; 0.1% (7 mM), culture for 2 weeks): 30%

Compound: CC(C)(COP(=O)(O)O)[C@@H](O)C(=O)NCCC(=O)NCCSSCCNC(=O)CCNC(=O)[C@H](O)C(C)(C)COP(=O)(O)O [Pantethine-4′,4″-diphosphate, pantethine-4′,4″-diphosphate]
stability (content by HPLC before and after heating) [4]: stable

Second part, led by results:

IC50 ([1]; culture for 2 weeks): 54 mM
Compound: O=C1O[C@H]([C@@H](O)CO)C(O)=C1OP(=O)(O)O [sodium ascorbyl-2-phosphate]

IC50 ([1]; culture for 2 weeks): 77 mM
Compound: pantethine-4′,4″-di-β-galactoside

IC50 ([1]; culture for 2 weeks): 3.1 mM
Compound: sodium pantethine-4′,4″-diphosphate
whitening activity relative to pantethine [1, 5]: 1.7 fold | whitening activity relative to sodium ascorbyl-2-phosphate [1, 5]: 17 times

amount of disulfide produced from the compound [2]: did not decrease | stability (content by HPLC before and after heating) ([2]; pH 3 and 4, 0.1% (w/v) in 50 mM buffer): improved from pantetheine
Compound: CC(C)(COP(=O)(O)O)[C@@H](O)C(=O)NCCC(=O)NCCS [pantetheine-4′-phosphate]
stability: oxidation to the disulfide ([2]; pH 5 or higher, 0.1% (w/v) in 50 mM buffer): oxidized and changed to pantethine-4′,4″-diphosphate | stability: remaining compound ([2]; pH 7 or higher, 0.1% (w/v) in 50 mM buffer): neither the pantetheine-4′-phosphate nor pantetheine remained

stability (content by HPLC before and after heating) ([3]; between pH 5 and 6): stable | stability (content by HPLC before and after heating) ([3]; pH 4 or lower, or pH 6.5 or higher): clearly degraded
Compound: CC(C)(CO)[C@@H](O)C(=O)NCCC(=O)NCCSS(=O)(=O)[O-].CC(C)(CO)[C@@H](O)C(=O)NCCC(=O)NCCSS(=O)(=O)[O-].[Ca+2] [calcium pantetheine-5-sulfonate]
